Assay results: paper PMC6359144 (International Journal of Molecular Sciences, 2019)

Tests used:
[1] = system: acetyl–alpha-tubulin in 518A2 melanoma cells; experiment: Western blot and immunofluorescence of acetyl-alpha-tubulin; format: cell-based, human; settings: 4f 4, 5, 6 µM (blot), 4 µM (immunofluorescence), 24 h
Method: After harvesting the cells by trypsination, they were pelleted by centrifugation (300× g, 5 min) followed by cell lysis in 100 µL lysis buffer (20 mM DTT, 200 µM sodium vanadate, 50 mM Tris/HCl, 1% triton X-100, 150 mM NaCl, pH 7.4) for 10 min on ice. […] Equal amounts of total protein were subjected to 10% SDS-polyacrylamide gel electrophoresis (SDS-PAGE) and transferred to polyvinylidene difluoride membranes (PVDF, Carl Roth). For subsequent analysis of acetylated protein and of alpha-tubulin which was used as a loading control, membranes were blocked and incubated with primary antibody solutions in 5% bovine serum albumin in 1× TBS or 5% milk powder in PBS, respectively. The protein bands were visualized by chemoluminescence (secondary antibody-HRP conjugates, ECL detection system; Cell Signaling) using a LAS-3000 imager (Fujifilm).
Immuofluorescence staining of acetylated alpha- tubulin.
After washing the cells with PBS, they were fixed in 3.7% formaldehyde in PBS (20 min, rt) followed by blocking and permeabilization in TBS supplemented with 5% BSA and 0.1% triton X-100 (30 min, rt). […]
antibody conjugate in the dark (2 h, rt). […] Pictures were taken by using a Zeiss Imager A1 AX10 fluorescence microscope (400× magnification). […]
The open image area after 24 h (%) compared to that at 0 h was quantified from three independent experiments by using the imageJ 1.50i software. […]

[2] = system: nude mice; experiment: In vivo toxicity in nude mice; design: species or system mouse; settings: 1 × 100 mg/kg i.p., 1 × 200 mg/kg orally
Method: In vivo toxicity of 4d was studied in nude mice (Charles River Laboratories, Sulzfeld, Germany). These experiments were carried out following the institutional guidelines. 4d was formulated in 10% Tween80/10% ethanol/80% saline for administration. […] The body weight of the mice was assessed daily under therapy.

Structure (SMILES)	acetylation of alpha-tubulin [1]	body weight changes [2]	tolerability in mice ([2]; observed two weeks)
COc1ccc(-c2ocnc2-c2cc(Br)c(OC)c(OC)c2)cc1OCCCCCC(=O)NO [4f, N-Hydroxy-6-[1-methoxy-4-(4’-(3’’-bromo-4’’,5’’-dimethoxyphenyl)oxazol-5’-yl)-2-phenoxy]hexanamide]	distinct increase of acetyl–alpha-tubulin	–	–
COc1ccc(-c2ocnc2-c2cc(Br)c(OC)c(OC)c2)cc1OCCCC(=O)NO [4d, N-Hydroxy-4-[1-methoxy-4-(4’-(3’’-bromo-4’’,5’’-dimethoxyphenyl)oxazol-5’-yl)-2-phenoxy]butanamide]	–	≤ 5%	tolerated well
